Results as given in ChEMBL document CHEMBL5143617 (Eur J Med Chem, 2022).
In brackets after ≈: the same amount, converted by molar mass. Activity calls are given as the source filed them. The calls are words filed in the database; no cut-off is given here.

Assays:
[1] = target: T1, cAMP and cAMP-inhibited cGMP 3',5'-cyclic phosphodiesterase 10A (Homo sapiens, UniProt Q9Y233); test: Inhibition of PDE10A (unknown origin) preincubated for 20 mins followed by substrate addition and measured after 1 hr by PEDlight AMP detection reagent based luminescence assay
[2] = target: 5-hydroxytryptamine receptor 7 (Homo sapiens, UniProt P34969); test: Displacement of [3H]-5-CT from human 5-HT7 receptor expressed in CHO-K1 cells membrane by scintillation counter analysis; type: cell membranes
[3] = target: T2, 5-hydroxytryptamine receptor 1A (Homo sapiens, UniProt P08908); test: Displacement of [3H]-[…] from human 5-HT1A receptor expressed in CHO-K1 cells membrane by scintillation counter analysis; type: cell membranes
T2 sequence (P08908 whole entry): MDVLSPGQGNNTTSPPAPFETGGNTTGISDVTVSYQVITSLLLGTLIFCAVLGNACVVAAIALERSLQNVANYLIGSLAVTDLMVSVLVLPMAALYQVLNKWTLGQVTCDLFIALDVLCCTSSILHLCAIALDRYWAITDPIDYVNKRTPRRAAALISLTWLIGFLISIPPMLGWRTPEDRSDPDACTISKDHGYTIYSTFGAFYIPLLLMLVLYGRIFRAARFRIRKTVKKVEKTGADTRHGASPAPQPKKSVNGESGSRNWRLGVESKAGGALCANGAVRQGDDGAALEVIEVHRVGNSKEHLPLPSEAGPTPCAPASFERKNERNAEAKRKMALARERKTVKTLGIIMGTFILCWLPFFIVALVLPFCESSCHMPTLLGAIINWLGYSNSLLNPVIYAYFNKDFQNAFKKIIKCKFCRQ

[4] = target: T1, cAMP and cAMP-inhibited cGMP 3',5'-cyclic phosphodiesterase 10A; test: Inhibition of PDE10A (unknown origin) at 10 uM preincubated for 20 mins followed by substrate addition and measured after 1 hr by PEDlight AMP detection reagent based luminescence assay relative to control; settings: time 80.0 min
[5] = Aqueous solubility of compound in PBS buffer at pH 7.4 by UV absorbance based analysis; type: physicochemical
Mus musculus [6] = test: Antidepressant activity in Swiss albino mouse assessed as reduction in immobility time at 2.5 mg/kg, ip measured for last 4 mins of 6 mins test by forced swim test; type: functional; design: scale not given: the % may be the effect or the level left; settings: 0.1 h
Mus musculus [7] = test: Anxiolytic-like activity in Swiss albino mouse at 1.25 to 2.5 mg/kg, ip by four plate test; type: functional, organism-based; settings: dose 1.25-2.5 mg/kg
Rattus norvegicus [8] = test: Pro-cognitive activity in MK-801-induced memory impaired Wistar rat assessed as recognition of novel location by measuring discrimination index at 0.3 to 3 mg/kg, ip preincubated for 30 mins followed by MK-801 addition for 30 mins prior to T1 phase by novel object location test; type: functional, organism-based; settings: dose 0.3-3 mg/kg, time 60.0 min
[9] = target: 5-hydroxytryptamine receptor 2A (Homo sapiens, UniProt P28223); test: Binding affinity to 5HT-2A receptor (unknown origin)
D(2) dopamine receptor = D(2) dopamine receptor (Homo sapiens, UniProt P14416); test: Binding affinity to dopamine D2 receptor (unknown origin)
[10] = target: T3, Adrenergic receptor alpha-1 (Homo sapiens, UniProt P35348+P25100+P35368); test: Binding affinity to adrenergic alpha 1 receptor (unknown origin); type: protein assay
T3 sequence (P35348 whole entry): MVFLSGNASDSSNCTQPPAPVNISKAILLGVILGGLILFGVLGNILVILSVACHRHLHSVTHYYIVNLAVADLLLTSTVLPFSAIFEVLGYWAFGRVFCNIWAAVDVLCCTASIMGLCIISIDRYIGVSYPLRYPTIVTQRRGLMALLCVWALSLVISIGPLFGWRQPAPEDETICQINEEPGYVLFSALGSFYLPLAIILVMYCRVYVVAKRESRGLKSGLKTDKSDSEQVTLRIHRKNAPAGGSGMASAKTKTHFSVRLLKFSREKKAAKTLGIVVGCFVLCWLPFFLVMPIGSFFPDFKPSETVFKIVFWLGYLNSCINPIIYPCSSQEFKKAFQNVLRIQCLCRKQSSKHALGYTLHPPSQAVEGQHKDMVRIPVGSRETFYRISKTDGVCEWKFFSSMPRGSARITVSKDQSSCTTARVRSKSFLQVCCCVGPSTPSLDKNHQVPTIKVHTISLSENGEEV
T3 sequence (P25100 whole entry): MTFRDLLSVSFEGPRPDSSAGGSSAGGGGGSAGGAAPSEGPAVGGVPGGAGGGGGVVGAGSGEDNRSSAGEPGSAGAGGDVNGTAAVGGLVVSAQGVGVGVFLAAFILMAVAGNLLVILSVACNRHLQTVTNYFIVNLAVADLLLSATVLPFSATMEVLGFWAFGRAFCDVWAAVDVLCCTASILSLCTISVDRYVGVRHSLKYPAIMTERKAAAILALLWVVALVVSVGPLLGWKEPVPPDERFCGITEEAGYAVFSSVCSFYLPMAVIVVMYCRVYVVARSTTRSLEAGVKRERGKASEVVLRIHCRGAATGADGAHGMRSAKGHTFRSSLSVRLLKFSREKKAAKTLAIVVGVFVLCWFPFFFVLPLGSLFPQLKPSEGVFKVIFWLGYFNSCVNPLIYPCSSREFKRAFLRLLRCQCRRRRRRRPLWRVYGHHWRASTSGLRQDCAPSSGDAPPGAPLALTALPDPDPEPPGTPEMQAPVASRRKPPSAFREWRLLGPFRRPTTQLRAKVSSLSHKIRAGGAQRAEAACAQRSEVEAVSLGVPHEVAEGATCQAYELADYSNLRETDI
T3 sequence (P35368 whole entry): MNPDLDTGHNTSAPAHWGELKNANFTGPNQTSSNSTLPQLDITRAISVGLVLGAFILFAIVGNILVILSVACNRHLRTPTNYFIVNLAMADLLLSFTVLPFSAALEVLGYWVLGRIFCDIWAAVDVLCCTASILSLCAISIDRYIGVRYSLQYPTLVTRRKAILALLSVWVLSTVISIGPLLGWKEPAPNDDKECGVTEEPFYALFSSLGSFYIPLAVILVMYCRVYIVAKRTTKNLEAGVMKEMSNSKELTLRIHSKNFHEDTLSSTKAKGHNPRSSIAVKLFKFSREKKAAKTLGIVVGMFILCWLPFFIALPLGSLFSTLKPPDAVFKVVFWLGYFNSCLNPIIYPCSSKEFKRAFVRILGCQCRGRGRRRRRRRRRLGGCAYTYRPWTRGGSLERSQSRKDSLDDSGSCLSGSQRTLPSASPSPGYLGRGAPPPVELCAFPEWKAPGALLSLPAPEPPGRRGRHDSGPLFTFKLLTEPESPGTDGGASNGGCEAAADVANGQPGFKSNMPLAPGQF

[11] = Metabolic stability in human liver microsomes assessed as intrinsic clearance
[12] = Tmax in mouse plasma at 1.25 mg/kg, ip measured up to 480 mins by LC/ESI-MS/MS analysis; type: ADME, organism-based
[13] = Cmax in mouse plasma at 1.25 mg/kg, ip measured up to 480 mins by LC/ESI-MS/MS analysis; type: ADME, organism-based; design: time < 480 min, dose 1.25 mg/kg, route ip
[14] = AUC(0 to t) in mouse plasma at 1.25 mg/kg, ip measured up to 480 mins by LC/ESI-MS/MS analysis; type: ADME, organism-based; design: dose 1.25 mg/kg, time < 480 min, route ip; settings: in vivo, 8 h
[15] = Apparent volume of distribution in mouse plasma at 1.25 mg/kg, ip measured up to 480 mins by LC/ESI-MS/MS analysis; type: ADME, organism-based
[16] = Tmax in mouse hippocampus at 1.25 mg/kg, ip by LC/ESI-MS/MS analysis; type: ADME, organism-based
[17] = Cmax in mouse hippocampus at 1.25 mg/kg, ip by LC/ESI-MS/MS analysis; type: ADME, organism-based; design: dose 1.25 mg/kg, route ip
[18] = AUC(0 to t) in mouse hippocampus at 1.25 mg/kg, ip by LC/ESI-MS/MS analysis; type: ADME, organism-based; design: dose 1.25 mg/kg, route ip
[19] = AUC(0 to t) in mouse striatum at 1.25 mg/kg, ip by LC/ESI-MS/MS analysis; type: ADME, organism-based; design: dose 1.25 mg/kg, route ip
[20] = Tmax in mouse striatum at 1.25 mg/kg, ip by LC/ESI-MS/MS analysis; type: ADME, organism-based
[21] = Cmax in mouse striatum at 1.25 mg/kg, ip by LC/ESI-MS/MS analysis; type: ADME, organism-based; design: dose 1.25 mg/kg, route ip
[22] = Tmax in mouse frontal cortex at 1.25 mg/kg, ip by LC/ESI-MS/MS analysis; type: ADME, organism-based
[23] = Cmax in mouse frontal cortex at 1.25 mg/kg, ip by LC/ESI-MS/MS analysis; type: ADME, organism-based; design: dose 1.25 mg/kg, route ip
[24] = AUC(0 to t) in mouse frontal cortex at 1.25 mg/kg, ip by LC/ESI-MS/MS analysis; type: ADME, organism-based; design: dose 1.25 mg/kg, route ip
Mus musculus [25] = test: Antidepressant activity in Swiss albino mouse assessed as reduction in immobility time at 5 mg/kg, ip measured for last 4 mins of 6 mins test by forced swim test; type: functional, organism-based
Mus musculus [26] = test: Anxiolytic-like activity in Swiss albino mouse at 2.5 mg/kg, ip by four plate test; type: functional, organism-based
Rattus norvegicus [27] = test: Pro-cognitive activity in MK-801-induced memory impaired Wistar rat assessed as recognition of novel location by measuring discrimination index at 1 mg/kg, ip preincubated for 30 mins followed by MK-801 addition for 30 mins prior to T1 phase by novel object location test; type: functional, organism-based; settings: time 60.0 min

5-hydroxytryptamine receptor 7, sequence (P34969 whole entry): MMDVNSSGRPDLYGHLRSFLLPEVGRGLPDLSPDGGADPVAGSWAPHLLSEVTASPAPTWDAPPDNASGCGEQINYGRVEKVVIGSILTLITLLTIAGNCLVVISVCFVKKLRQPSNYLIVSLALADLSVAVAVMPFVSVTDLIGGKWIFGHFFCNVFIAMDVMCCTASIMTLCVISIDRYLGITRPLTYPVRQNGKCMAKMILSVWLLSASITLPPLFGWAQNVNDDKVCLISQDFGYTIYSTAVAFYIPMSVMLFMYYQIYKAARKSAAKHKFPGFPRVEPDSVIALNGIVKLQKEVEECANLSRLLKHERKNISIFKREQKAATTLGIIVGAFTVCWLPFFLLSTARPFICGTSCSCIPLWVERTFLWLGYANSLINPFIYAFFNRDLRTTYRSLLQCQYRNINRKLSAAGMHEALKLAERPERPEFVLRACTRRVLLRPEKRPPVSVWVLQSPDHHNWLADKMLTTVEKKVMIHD
T1 sequence (Q9Y233 whole entry): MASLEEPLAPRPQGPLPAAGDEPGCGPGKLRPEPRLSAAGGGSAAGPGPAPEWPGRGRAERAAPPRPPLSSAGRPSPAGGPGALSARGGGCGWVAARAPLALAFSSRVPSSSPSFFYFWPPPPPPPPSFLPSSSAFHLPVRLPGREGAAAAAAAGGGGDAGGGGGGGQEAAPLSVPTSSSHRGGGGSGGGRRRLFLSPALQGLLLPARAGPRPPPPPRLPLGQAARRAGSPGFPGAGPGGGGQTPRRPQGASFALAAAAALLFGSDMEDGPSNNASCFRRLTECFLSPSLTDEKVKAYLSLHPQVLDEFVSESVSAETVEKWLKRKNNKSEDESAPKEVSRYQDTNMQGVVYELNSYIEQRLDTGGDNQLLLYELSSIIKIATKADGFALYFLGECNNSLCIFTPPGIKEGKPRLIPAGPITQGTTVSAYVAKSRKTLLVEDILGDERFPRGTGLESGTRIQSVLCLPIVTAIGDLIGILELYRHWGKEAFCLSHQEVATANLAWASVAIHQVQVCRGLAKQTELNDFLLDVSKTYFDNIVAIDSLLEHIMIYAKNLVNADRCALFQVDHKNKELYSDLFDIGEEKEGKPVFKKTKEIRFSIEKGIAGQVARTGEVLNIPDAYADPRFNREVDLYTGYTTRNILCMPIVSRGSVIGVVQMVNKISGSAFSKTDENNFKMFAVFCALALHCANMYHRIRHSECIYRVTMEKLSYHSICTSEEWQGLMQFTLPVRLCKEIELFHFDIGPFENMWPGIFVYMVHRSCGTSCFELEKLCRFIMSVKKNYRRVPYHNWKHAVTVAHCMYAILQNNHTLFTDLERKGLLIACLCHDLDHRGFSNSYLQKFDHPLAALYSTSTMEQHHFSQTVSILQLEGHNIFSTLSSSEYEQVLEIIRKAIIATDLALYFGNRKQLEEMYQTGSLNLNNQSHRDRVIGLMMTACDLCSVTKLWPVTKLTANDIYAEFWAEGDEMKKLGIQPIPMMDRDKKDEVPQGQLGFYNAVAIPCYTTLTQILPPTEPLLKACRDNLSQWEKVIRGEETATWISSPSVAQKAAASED
D(2) dopamine receptor, sequence (P14416 whole entry): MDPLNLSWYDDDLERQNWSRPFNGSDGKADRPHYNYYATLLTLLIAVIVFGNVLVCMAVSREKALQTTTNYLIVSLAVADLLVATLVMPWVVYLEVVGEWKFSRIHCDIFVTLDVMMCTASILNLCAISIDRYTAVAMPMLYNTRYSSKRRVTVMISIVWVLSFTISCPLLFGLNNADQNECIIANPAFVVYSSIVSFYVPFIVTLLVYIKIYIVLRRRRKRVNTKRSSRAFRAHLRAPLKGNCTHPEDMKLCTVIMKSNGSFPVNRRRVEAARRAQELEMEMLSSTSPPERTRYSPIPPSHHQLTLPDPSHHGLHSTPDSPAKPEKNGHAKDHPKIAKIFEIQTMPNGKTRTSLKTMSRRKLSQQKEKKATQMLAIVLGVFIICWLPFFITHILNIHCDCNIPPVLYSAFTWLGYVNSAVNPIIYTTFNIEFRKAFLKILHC
5-hydroxytryptamine receptor 2A, sequence (P28223 whole entry): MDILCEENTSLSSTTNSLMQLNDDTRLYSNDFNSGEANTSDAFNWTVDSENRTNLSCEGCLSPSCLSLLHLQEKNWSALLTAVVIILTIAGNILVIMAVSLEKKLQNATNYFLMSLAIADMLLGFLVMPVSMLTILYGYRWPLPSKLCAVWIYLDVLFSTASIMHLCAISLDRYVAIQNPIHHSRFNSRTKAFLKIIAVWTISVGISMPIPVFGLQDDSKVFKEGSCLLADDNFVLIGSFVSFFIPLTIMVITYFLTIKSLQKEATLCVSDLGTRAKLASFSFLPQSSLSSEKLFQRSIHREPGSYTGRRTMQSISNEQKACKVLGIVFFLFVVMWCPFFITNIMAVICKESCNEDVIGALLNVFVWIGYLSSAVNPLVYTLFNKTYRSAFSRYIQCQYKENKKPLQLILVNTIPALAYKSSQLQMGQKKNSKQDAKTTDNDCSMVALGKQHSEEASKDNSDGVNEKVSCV

| Compound | Ki [2] [nM] | Ki [3] [nM] | inhibition [4] [%] | also measured |
| --- | --- | --- | --- | --- |
| COc1cc2ncnc(N3CCC(CN4CCN(c5ccccc5O)CC4)C3)c2cc1OC (stereo not given) | 661 |  |  | IC50 [1]: 6030 nM |
| COc1cc2ncnc(N3CCC(CN4CCN(c5cccc(Cl)c5Cl)CC4)C3)c2cc1OC (stereo not given) | 347 | 10.7 | 6 |  |
| COCCc1ccc(OCC(O)CNC(C)C)cc1 (stereo not given) [METOPROLOL] |  |  |  | solubility [5]: 200 µM (≈ 53.5 µg/mL) |
| COc1cc2ncnc(N3CCC(CN4CCN(c5ccc(Cl)c(Cl)c5)CC4)C3)c2cc1OC (stereo not given) | 355 | 245 | 2 |  |
| COc1cc2ncnc(N3CCC(CN4CCc5ccccc5C4)C3)c2cc1OC (stereo not given) | 603 | > 1000 | 40 | IC50 [1]: 105000 nM |
| COc1cc2ncnc(N3CCC(CN4CCN(c5ccc(O)cc5)CC4)C3)c2cc1OC (stereo not given) | > 1000 | 468 | 18 |  |
| COc1cc2ncnc(N3CCC(CN4CCN(c5ncccn5)CC4)C3)c2cc1OC (stereo not given) | > 1000 | 251 | 11 |  |
| COc1cc2ncnc(N3CCN(Cc4nc5ccccc5[nH]4)CC3)c2cc1OC | > 1000 | > 1000 | 3 |  |
| COc1cc2ncnc(N3CC[C@@H](Oc4cnc5ccccc5n4)C3)c2cc1OC |  |  |  | Activity (Mus musculus [6]): 30%; Activity (Mus musculus [7]): Active; Activity (Rattus norvegicus [8]): Active |
| COc1cccc(N2CCN(CC3CCN(c4ncnc5cc(OC)c(OC)cc45)C3)CC2)c1 (stereo not given) | 234 |  |  | IC50 [1]: 7080 nM; Ki [9]: > 1000 nM; Ki (D(2) dopamine receptor): > 1000 nM; pKi [10]: 6.58; microsomal CLint [11]: 292 µL/min/mg; Tmax [12]: 5 min; Cmax [13]: 13.3 ng/mL; AUCt [14]: 1164 ng·min/mL; Vd/F [15]: 0.253 L/kg; Tmax [16]: 30 min; Cmax [17]: 436 ng/mL; AUC(0-t) [18]: 906 ng·h/mL; AUC(0-t) [19]: 438 ng·h/mL; Tmax [20]: 30 min; Cmax [21]: 303 ng/mL; Tmax [22]: 15 min; Cmax [23]: 210 ng/mL; AUC(0-t) [24]: 726 ng·h/mL |
| c1cc(N2CCN(Cc3cnc4ccccc4n3)CC2)c2[nH]ncc2c1 | > 1000 | 87.1 |  |  |
| COc1cc2ncnc(N3CCC(CN4CCN(c5ccccc5)CC4)C3)c2cc1OC (stereo not given) | 251 | 32.4 | 3 | Activity (Mus musculus [25]): Active; Activity (Mus musculus [26]): Active; Activity (Rattus norvegicus [27]): Active |
| COc1cc2ncnc(N3CCC(CN4CCN(c5ccccn5)CC4)C3)c2cc1OC (stereo not given) | 282 | 8.13 | 11 |  |
